From PubChem BioAssay AID1053201 (The Scripps Research Institute Molecular Screening Center, 2014)
Each block holds one compound with its values, some of them ahead of it. Active and inactive are the calls of the source. No rule for the calls is given here.

System: methionyl-tRNA synthetase (Trypanosoma brucei brucei)
Assay: inhibition of trypanosome methionyl-tRNA synthetase aminoacylation – biochemical, radioactivity, assay provider, round 3, late-stage follow-up (AID 1053201)
Details: recombinant T. brucei MetRS enzyme, [3H]methionine tRNA aminoacylation filter assay, 2 h, stronger effect = higher value

Compound: CCN(CC)C(=O)C(=O)c1cn(CCNc2cccc(C(F)(F)F)c2)c2ccccc12
inhibition (at 10 µM): -18.4% (inactive)
inhibition (inhibition, at 1 µM): -21.5%

Compound: O=C(Cc1ccc(Nc2nc3ccc(Br)cc3[nH]2)cc1)NCCc1cccs1
inhibition (at 10 µM): 23.3% (inactive)
inhibition (inhibition, at 1 µM): -10.2%

Compound: CCN(CC)C(=O)C(=O)c1cn(CCNc2cc(Oc3ccccc3)cc(C(F)(F)F)c2)c2ccccc12
inhibition (at 10 µM): 8.12% (inactive)
inhibition (inhibition, at 1 µM): -20.2%

Compound: Nc1c(Cl)ncnc1Nc1ccc(C(=O)O)cc1
inhibition (at 10 µM): 43.1% (inactive)
inhibition (inhibition, at 1 µM): -5.91%

Compound: O=C(Cn1cc(C(=O)C(=O)NCc2ccccc2)c2ccccc21)Nc1cc(Oc2ccccc2)cc(C(F)(F)F)c1
inhibition (at 10 µM): 47.9% (inactive)
inhibition (inhibition, at 1 µM): 9.14%

Compound: CCN(CC)C(=O)Cc1cn(CC(=O)Nc2cccc(C(F)(F)F)c2)c2ccccc12
inhibition (at 10 µM): -16.7% (inactive)
inhibition (inhibition, at 1 µM): -13.1%

Compound: CCN(CC)C(=O)C(=O)c1cn(CC(=O)Nc2cc(Oc3ccccc3F)cc(C(F)(F)F)c2)c2ccccc12
inhibition (at 10 µM): 95.6%
inhibition (inhibition, at 1 µM): 91.9%

Second part, the compound after the results:

inhibition (at 10 µM): 94.1%
inhibition (inhibition, at 1 µM): 92.3%
Compound: CCN(CC)C(=O)C(=O)c1cn(CC(=O)Nc2cc(Oc3ccc(OC)cc3)cc(C(F)(F)F)c2)c2ccccc12

inhibition (at 10 µM): 97.3%
inhibition (inhibition, at 1 µM): 93.1%
Compound: CCN(CC)C(=O)C(=O)c1cn(CC(=O)Nc2cc(Oc3ccc(F)cc3)cc(C(F)(F)F)c2)c2ccccc12

inhibition (at 10 µM): 98.2%
inhibition (inhibition, at 1 µM): 94.7%
Compound: CCN(CC)C(=O)C(=O)c1cn(CC(=O)Nc2cc(Oc3ccccc3OC)cc(C(F)(F)F)c2)c2ccccc12
